Data reported in PubChem BioAssay (NCI).
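Each compound was tested at five concentrations against cells in 96-well plates for 48 hours. TGI is the concentration that stops growth completely.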

How the values were obtained:
Test in all cases: inhibition of tumour cell growth, NCI panel, 48 h
OVCAR-8 ovarian = tested on: OVCAR-8 ovarian
U251 CNS = tested on: U251 CNS
OVCAR-3 ovarian = tested on: OVCAR-3 ovarian
HOP-92 NSCLC = tested on: HOP-92 NSCLC
SK-MEL-5 melanoma = tested on: SK-MEL-5 melanoma
SK-OV-3 ovarian = tested on: SK-OV-3 ovarian
HCT-15 colon = tested on: HCT-15 colon
K-562 leukemia = tested on: K-562 leukemia
UO-31 renal = tested on: UO-31 renal
BT-549 breast = tested on: BT-549 breast
NCI-H226 lung = tested on: NCI-H226 lung
SK-MEL-2 melanoma = tested on: SK-MEL-2 melanoma
M14 melanoma = tested on: M14 melanoma
HOP-62 NSCLC = tested on: HOP-62 NSCLC
MALME-3M melanoma = tested on: MALME-3M melanoma
LOX IMVI melanoma = tested on: LOX IMVI melanoma
SW-620 colon = tested on: SW-620 colon
NCI-H522 lung = tested on: NCI-H522 lung
NCI-H460 lung = tested on: NCI-H460 lung
OVCAR-4 ovarian = tested on: OVCAR-4 ovarian

Structure (SMILES)	TGI (OVCAR-8 ovarian)	TGI (U251 CNS)	TGI (OVCAR-3 ovarian)	TGI (HOP-92 NSCLC)	TGI (SK-MEL-5 melanoma)	TGI (SK-OV-3 ovarian)	TGI (HCT-15 colon)	TGI (K-562 leukemia)	TGI (UO-31 renal)	TGI (BT-549 breast)	TGI (NCI-H226 lung)	TGI (SK-MEL-2 melanoma)	TGI (M14 melanoma)	TGI (HOP-62 NSCLC)	TGI (MALME-3M melanoma)	TGI (LOX IMVI melanoma)	TGI (SW-620 colon)	TGI (NCI-H522 lung)	TGI (NCI-H460 lung)	TGI (OVCAR-4 ovarian)
CCOC(=O)c1c(N2CCOCC2)[nH]c(=O)c(C(c2c(O)c(C(=O)OCC)c(N3CCOCC3)[nH]c2=O)C(C)C)c1O	> 100 µM	> 100 µM	> 100 µM	> 100 µM	> 100 µM	> 100 µM	> 100 µM	> 100 µM	> 100 µM	> 100 µM	> 100 µM	> 100 µM	> 100 µM	> 100 µM	> 100 µM	> 100 µM	> 100 µM	> 100 µM	> 100 µM	> 100 µM
O=C(O)c1cnccc1-c1cc(=O)[nH]n1-c1ccccc1	> 100 µM	> 100 µM	> 100 µM	> 100 µM	> 100 µM	> 100 µM	> 100 µM	> 100 µM	> 100 µM	> 100 µM	> 100 µM	> 100 µM	> 100 µM	> 100 µM	> 100 µM	> 100 µM	> 100 µM	> 100 µM	> 100 µM	> 100 µM
CCOC(=O)C(Cc1ccc(OC(=O)c2ccc(OC)cc2OC)cc1)NC(=O)C(F)(F)F (stereo not given)	51 µM	> 100 µM	36.9 µM	55.1 µM	> 100 µM	> 100 µM	43.3 µM	> 100 µM	34.5 µM	> 100 µM	> 100 µM	57.5 µM	33.8 µM	44.9 µM	59.9 µM	36 µM	> 100 µM	40.9 µM	> 100 µM	55.8 µM
